# In ChEMBL document CHEMBL1201862, “PubChem BioAssay data set” (2004):
#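 Where inhibition never reached the appropriate level, the endpoint shown equals the highest concentration tested. Otherwise, values were interpolated linearly from a five-concentration, 48-hour dose response in 96-well plates. GI50 = concentration required for 50% inhibition of growth.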 Active and inactive are the calls of the source. No stated cut-off is given here; in the data, active = GI50 up to about 1.1 µM and inactive = higher.
# Tests used:
# Test in all cases: growth of human tumour cells (NCI), 48 h
# M19-MEL = tested on: M19-MEL
# SNB-78 = tested on: SNB-78
# SK-MEL-5 = tested on: SK-MEL-5
# MOLT-4 = tested on: MOLT-4
# NCI-H522 = tested on: NCI-H522
# A498 = tested on: A498
# MCF7 = tested on: MCF7
# OVCAR-4 = tested on: OVCAR-4
# COLO 205 = tested on: COLO 205
# SW-620 = tested on: SW-620
# A549 = tested on: A549
# NCI-H460 = tested on: NCI-H460
# NCI-H23 = tested on: NCI-H23
# DMS-273 = tested on: DMS-273
# HOP-62 = tested on: HOP-62
# UO-31 = tested on: UO-31
# OVCAR-3 = tested on: OVCAR-3
# OVCAR-5 = tested on: OVCAR-5
# XF498 = tested on: XF498
# HCT-15 = tested on: HCT-15
# SN12C = tested on: SN12C
# SK-MEL-28 = tested on: SK-MEL-28
# DLD-1 = tested on: DLD-1
# NCI/ADR-RES = tested on: NCI/ADR-RES
# U-251 = tested on: U-251
# LOX IMVI = tested on: LOX IMVI
# SF-295 = tested on: SF-295
# SF-539 = tested on: SF-539
# RPMI-8226 = tested on: RPMI-8226
# SK-MEL-2 = tested on: SK-MEL-2
# UACC-257 = tested on: UACC-257
# CCRF-CEM = tested on: CCRF-CEM
# IGROV-1 = tested on: IGROV-1
# HCT-116 = tested on: HCT-116
# KM12 = tested on: KM12
# SK-OV-3 = tested on: SK-OV-3
# HOP-18 = tested on: HOP-18
# HOP-92 = tested on: HOP-92
# KM-20L2 = tested on: KM-20L2
# HL-60 = tested on: HL-60
# HCC 2998 = tested on: HCC 2998
# SNB-75 = tested on: SNB-75
# OVCAR-8 = tested on: OVCAR-8
# RXF 393 = tested on: RXF 393
# Malme-3M = tested on: Malme-3M
# SNB-19 = tested on: SNB-19
# HT-29 = tested on: HT-29
# K562 = tested on: K562
# UACC-62 = tested on: UACC-62
# TK-10 = tested on: TK-10
# ACHN = tested on: ACHN
# M14 = tested on: M14
# SF-268 = tested on: SF-268
# DMS-114 = tested on: DMS-114
# 786-0 = tested on: 786-0
# NCI-H226 = tested on: NCI-H226
# CAKI-1 = tested on: CAKI-1
# LXFL 529 = tested on: LXFL 529
# EKVX = tested on: EKVX
# PC-3 = tested on: PC-3
# T47D = tested on: T47D
# MDA-MB-231 = tested on: MDA-MB-231
# Hs-578T = tested on: Hs-578T
# MDA-N = tested on: MDA-N
# SR = tested on: SR
# DU-145 = tested on: DU-145
# MDA-MB-435 = tested on: MDA-MB-435
compound,measurement,setting,value
O=C(/C=C\c1ccc(/C=C/C(=O)Nc2cccc(C3=NCCCN3)c2)cc1)Nc1cccc(C2=NCCCN2)c1,GI50,M19-MEL,> 100 µM (inactive)
same,GI50,SNB-78,> 100 µM (inactive)
same,GI50,SK-MEL-5,30.8 µM (inactive)
same,GI50,MOLT-4,> 100 µM (inactive)
same,GI50,NCI-H522,42.8 µM (inactive)
same,GI50,A498,> 74.3 µM (inactive)
same,GI50,MCF7,16.3 µM (inactive)
same,GI50,OVCAR-4,> 100 µM (inactive)
same,GI50,COLO 205,4.06 µM (inactive)
same,GI50,SW-620,25.4 µM (inactive)
same,GI50,A549,> 100 µM (inactive)
same,GI50,NCI-H460,> 100 µM (inactive)
same,GI50,NCI-H23,> 100 µM (inactive)
same,GI50,DMS-273,> 100 µM (inactive)
same,GI50,HOP-62,65.8 µM (inactive)
same,GI50,UO-31,> 100 µM (inactive)
same,GI50,OVCAR-3,> 100 µM (inactive)
same,GI50,OVCAR-5,> 100 µM (inactive)
same,GI50,XF498,< 0.01 µM (active)
same,GI50,HCT-15,> 100 µM
same,GI50,SN12C,> 100 µM (inactive)
same,GI50,SK-MEL-28,> 100 µM (inactive)
same,GI50,DLD-1,> 100 µM (inactive)
same,GI50,NCI/ADR-RES,> 100 µM (inactive)
same,GI50,U-251,> 100 µM (inactive)
same,GI50,LOX IMVI,> 100 µM (inactive)
same,GI50,SF-295,> 100 µM (inactive)
same,GI50,SF-539,> 100 µM (inactive)
same,GI50,RPMI-8226,33.9 µM (inactive)
same,GI50,SK-MEL-2,> 62.8 µM (inactive)
same,GI50,UACC-257,> 100 µM (inactive)
same,GI50,CCRF-CEM,> 100 µM (inactive)
same,GI50,IGROV-1,> 100 µM (inactive)
same,GI50,HCT-116,> 100 µM (inactive)
same,GI50,KM12,> 100 µM (inactive)
same,GI50,SK-OV-3,> 100 µM (inactive)
same,GI50,HOP-18,> 100 µM (inactive)
same,GI50,HOP-92,> 100 µM (inactive)
same,GI50,KM-20L2,> 56.4 µM (inactive)
same,GI50,HL-60,> 100 µM (inactive)
same,GI50,HCC 2998,69.2 µM (inactive)
same,GI50,SNB-75,> 69.3 µM (inactive)
same,GI50,OVCAR-8,> 100 µM (inactive)
same,GI50,RXF 393,> 100 µM (inactive)
same,GI50,Malme-3M,> 100 µM (inactive)
same,GI50,SNB-19,> 100 µM (inactive)
same,GI50,HT-29,> 100 µM (inactive)
same,GI50,K562,> 100 µM (inactive)
CCO/N=C(/N)c1ncn(Cc2ccccc2)c1NCC(OCC)OCC,GI50,M19-MEL,> 100 µM (inactive)
same,GI50,SNB-78,> 100 µM (inactive)
same,GI50,SK-MEL-5,> 100 µM (inactive)
same,GI50,MOLT-4,> 100 µM (inactive)
same,GI50,NCI-H522,> 100 µM (inactive)
same,GI50,A498,> 100 µM (inactive)
same,GI50,UACC-62,> 100 µM (inactive)
same,GI50,COLO 205,> 100 µM (inactive)
same,GI50,SW-620,> 100 µM (inactive)
same,GI50,A549,> 100 µM (inactive)
same,GI50,NCI-H460,> 100 µM (inactive)
same,GI50,TK-10,> 100 µM (inactive)
same,GI50,ACHN,> 100 µM (inactive)
same,GI50,M14,> 100 µM (inactive)
same,GI50,SF-268,> 100 µM (inactive)
same,GI50,DMS-273,> 100 µM (inactive)
same,GI50,HOP-62,> 100 µM (inactive)
same,GI50,UO-31,> 100 µM (inactive)
same,GI50,OVCAR-3,> 100 µM (inactive)
same,GI50,OVCAR-5,> 100 µM (inactive)
same,GI50,XF498,29.7 µM (inactive)
same,GI50,HCT-15,> 100 µM
same,GI50,SN12C,> 100 µM (inactive)
same,GI50,DLD-1,> 100 µM (inactive)
same,GI50,DMS-114,> 100 µM (inactive)
same,GI50,U-251,> 100 µM (inactive)
same,GI50,LOX IMVI,> 100 µM (inactive)
same,GI50,SF-295,> 100 µM (inactive)
same,GI50,SF-539,> 100 µM (inactive)
same,GI50,RPMI-8226,> 100 µM (inactive)
same,GI50,SK-MEL-2,> 100 µM (inactive)
same,GI50,UACC-257,> 100 µM (inactive)
same,GI50,CCRF-CEM,> 100 µM (inactive)
same,GI50,IGROV-1,> 100 µM (inactive)
same,GI50,HCT-116,> 100 µM (inactive)
same,GI50,KM12,> 100 µM (inactive)
same,GI50,SK-OV-3,> 100 µM (inactive)
same,GI50,786-0,> 100 µM (inactive)
same,GI50,KM-20L2,> 100 µM (inactive)
same,GI50,NCI-H226,> 100 µM (inactive)
same,GI50,CAKI-1,> 100 µM (inactive)
same,GI50,HCC 2998,> 100 µM (inactive)
same,GI50,SNB-75,> 100 µM (inactive)
same,GI50,OVCAR-8,> 100 µM (inactive)
same,GI50,LXFL 529,> 100 µM (inactive)
same,GI50,RXF 393,29.2 µM (inactive)
same,GI50,Malme-3M,> 100 µM (inactive)
same,GI50,EKVX,> 100 µM (inactive)
same,GI50,SNB-19,> 100 µM (inactive)
same,GI50,HT-29,> 100 µM (inactive)
same,GI50,K562,> 100 µM (inactive)
COc1cc(/C=C2/C(=O)N(C(=O)c3ccccc3O)N=C2C)ccc1O,GI50,PC-3,0.802 µM (active)
same,GI50,M19-MEL,0.653 µM (active)
same,GI50,SK-MEL-5,0.274 µM (active)
same,GI50,NCI-H522,0.593 µM (active)
same,GI50,T47D,0.404 µM (active)
same,GI50,A498,0.0771 µM (active)
same,GI50,UACC-62,0.0518 µM (active)
same,GI50,MCF7,0.514 µM (active)
same,GI50,MDA-MB-231,> 100 µM (inactive)
same,GI50,OVCAR-4,1.28 µM (inactive)
same,GI50,COLO 205,18.9 µM (inactive)
same,GI50,SW-620,1.36 µM (inactive)
same,GI50,A549,0.358 µM (active)
same,GI50,NCI-H460,0.161 µM (active)
same,GI50,TK-10,5.4 µM (inactive)
same,GI50,Hs-578T,0.272 µM (active)
same,GI50,NCI-H23,0.277 µM (active)
same,GI50,ACHN,0.123 µM (active)
same,GI50,M14,0.698 µM (active)
same,GI50,SF-268,0.23 µM (active)
same,GI50,HOP-62,1.77 µM (inactive)
same,GI50,UO-31,0.17 µM (active)
same,GI50,OVCAR-3,0.4 µM (active)
same,GI50,OVCAR-5,6.46 µM (inactive)
same,GI50,XF498,0.0723 µM (active)
same,GI50,MDA-N,0.385 µM (active)
same,GI50,HCT-15,0.406 µM
same,GI50,SN12C,0.719 µM (active)
same,GI50,SK-MEL-28,34.4 µM (inactive)
same,GI50,DLD-1,0.0603 µM (active)
same,GI50,NCI/ADR-RES,0.596 µM (active)
same,GI50,DMS-114,0.171 µM (active)
same,GI50,U-251,0.144 µM (active)
same,GI50,LOX IMVI,0.465 µM (active)
same,GI50,SR,0.206 µM (active)
same,GI50,SF-295,0.214 µM (active)
same,GI50,SF-539,0.14 µM (active)
same,GI50,RPMI-8226,1.06 µM (active)
same,GI50,DU-145,0.658 µM (active)
same,GI50,SK-MEL-2,1.01 µM (active)
same,GI50,UACC-257,0.838 µM (active)
same,GI50,CCRF-CEM,0.201 µM (active)
same,GI50,IGROV-1,0.123 µM (active)
same,GI50,HCT-116,0.0957 µM (active)
same,GI50,KM12,0.202 µM (active)
same,GI50,SK-OV-3,0.223 µM (active)
same,GI50,786-0,0.421 µM (active)
same,GI50,HOP-92,0.143 µM (active)
same,GI50,KM-20L2,18.5 µM (inactive)
same,GI50,HL-60,0.536 µM (active)
same,GI50,NCI-H226,0.701 µM (active)
same,GI50,CAKI-1,0.217 µM (active)
same,GI50,HCC 2998,4.65 µM (inactive)
same,GI50,OVCAR-8,0.352 µM (active)
same,GI50,LXFL 529,0.0515 µM (active)
same,GI50,RXF 393,0.0628 µM (active)
same,GI50,Malme-3M,0.43 µM (active)
same,GI50,EKVX,0.586 µM (active)
same,GI50,MDA-MB-435,0.409 µM (active)
same,GI50,SNB-19,0.123 µM (active)
same,GI50,HT-29,9.55 µM (inactive)
same,GI50,K562,0.104 µM (active)
